Results taken from PubChem BioAssay (NCI).
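Cells were grown in 96-well plates and exposed to each compound for 48 hours at five concentrations; endpoints were interpolated linearly between bracketing concentrations, or set to the highest concentration if not reached. The concentration for full growth arrest is given as TGI.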

Key:
Assay in all cases: NCI-60 cell line screen, 48 h
786-0 renal = test system: 786-0 renal
A498 renal = test system: A498 renal
A549 NSCLC = test system: A549 NSCLC
ACHN renal = test system: ACHN renal
BT-549 breast = test system: BT-549 breast
CAKI-1 renal = test system: CAKI-1 renal
CCRF-CEM leukemia = test system: CCRF-CEM leukemia
COLO 205 colon = test system: COLO 205 colon
DU-145 prostate = test system: DU-145 prostate
EKVX NSCLC = test system: EKVX NSCLC
HCC-2998 colon = test system: HCC-2998 colon
HCT-116 colon = test system: HCT-116 colon
HCT-15 colon = test system: HCT-15 colon
HL-60(TB) leukemia = test system: HL-60(TB) leukemia
HOP-62 NSCLC = test system: HOP-62 NSCLC
HOP-92 NSCLC = test system: HOP-92 NSCLC
HS 578T breast = test system: HS 578T breast
HT29 colon = test system: HT29 colon
IGROV1 ovarian = test system: IGROV1 ovarian
K-562 leukemia = test system: K-562 leukemia
KM12 colon = test system: KM12 colon
LOX IMVI melanoma = test system: LOX IMVI melanoma
M14 melanoma = test system: M14 melanoma
MALME-3M melanoma = test system: MALME-3M melanoma
MCF7 breast = test system: MCF7 breast
MDA-MB-231 breast = test system: MDA-MB-231 breast
MDA-MB-435 = test system: MDA-MB-435
MDA-N = test system: MDA-N
MOLT-4 leukemia = test system: MOLT-4 leukemia
NCI-H226 lung = test system: NCI-H226 lung
NCI-H23 lung = test system: NCI-H23 lung
NCI-H460 lung = test system: NCI-H460 lung
NCI-H522 lung = test system: NCI-H522 lung
NCI/ADR-RES ovarian = test system: NCI/ADR-RES ovarian
OVCAR-3 ovarian = test system: OVCAR-3 ovarian
OVCAR-4 ovarian = test system: OVCAR-4 ovarian
OVCAR-5 ovarian = test system: OVCAR-5 ovarian
OVCAR-8 ovarian = test system: OVCAR-8 ovarian
PC-3 prostate = test system: PC-3 prostate
RPMI-8226 leukemia = test system: RPMI-8226 leukemia
RXF 393 renal = test system: RXF 393 renal
SF-268 CNS = test system: SF-268 CNS
SF-295 CNS = test system: SF-295 CNS
SF-539 CNS = test system: SF-539 CNS
SK-MEL-2 melanoma = test system: SK-MEL-2 melanoma
SK-MEL-28 melanoma = test system: SK-MEL-28 melanoma
SK-MEL-5 melanoma = test system: SK-MEL-5 melanoma
SK-OV-3 ovarian = test system: SK-OV-3 ovarian
SN12C renal = test system: SN12C renal
SNB-19 CNS = test system: SNB-19 CNS
SNB-75 CNS = test system: SNB-75 CNS
SR leukemia = test system: SR leukemia
SW-620 colon = test system: SW-620 colon
T-47D breast = test system: T-47D breast
TK-10 renal = test system: TK-10 renal
U251 CNS = test system: U251 CNS
UACC-257 melanoma = test system: UACC-257 melanoma
UACC-62 melanoma = test system: UACC-62 melanoma
UO-31 renal = test system: UO-31 renal

## COc1ccc(OC)c(CCc2cc(OC)ccc2OC)c1
786-0 renal
  TGI: > 10 µM
A498 renal
  TGI: > 10 µM
A549 NSCLC
  TGI: > 10 µM
ACHN renal
  TGI: > 10 µM
BT-549 breast
  TGI: > 10 µM
CAKI-1 renal
  TGI: > 10 µM
CCRF-CEM leukemia
  TGI: > 10 µM
COLO 205 colon
  TGI: 4.88 µM
DU-145 prostate
  TGI: > 10 µM
EKVX NSCLC
  TGI: > 10 µM
HCC-2998 colon
  TGI: > 10 µM
HCT-116 colon
  TGI: > 10 µM
HCT-15 colon
  TGI: > 10 µM
HL-60(TB) leukemia
  TGI: 5.28 µM
HOP-62 NSCLC
  TGI: > 10 µM
HOP-92 NSCLC
  TGI: > 10 µM
HS 578T breast
  TGI: 7.29 µM
HT29 colon
  TGI: > 10 µM
IGROV1 ovarian
  TGI: > 10 µM
K-562 leukemia
  TGI: > 10 µM
KM12 colon
  TGI: > 10 µM
LOX IMVI melanoma
  TGI: > 10 µM
M14 melanoma
  TGI: > 10 µM
MALME-3M melanoma
  TGI: > 6.95 µM
MCF7 breast
  TGI: > 10 µM
MDA-MB-231 breast
  TGI: > 10 µM
MDA-MB-435
  TGI: 0.49 µM
MDA-N
  TGI: 1.64 µM
MOLT-4 leukemia
  TGI: > 10 µM
NCI-H226 lung
  TGI: > 10 µM
NCI-H23 lung
  TGI: > 10 µM
NCI-H460 lung
  TGI: > 10 µM
NCI-H522 lung
  TGI: > 9.66 µM
NCI/ADR-RES ovarian
  TGI: > 6.02 µM
OVCAR-3 ovarian
  TGI: 2.09 µM
OVCAR-4 ovarian
  TGI: > 10 µM
OVCAR-5 ovarian
  TGI: > 10 µM
OVCAR-8 ovarian
  TGI: > 10 µM
PC-3 prostate
  TGI: > 10 µM
RPMI-8226 leukemia
  TGI: > 10 µM
RXF 393 renal
  TGI: > 8.51 µM
SF-268 CNS
  TGI: > 10 µM
SF-295 CNS
  TGI: > 7.31 µM
SF-539 CNS
  TGI: 4.76 µM
SK-MEL-2 melanoma
  TGI: > 8.88 µM
SK-MEL-28 melanoma
  TGI: > 10 µM
SK-MEL-5 melanoma
  TGI: > 9.35 µM
SK-OV-3 ovarian
  TGI: > 10 µM
SN12C renal
  TGI: > 10 µM
SNB-19 CNS
  TGI: > 10 µM
SNB-75 CNS
  TGI: 9.07 µM
SR leukemia
  TGI: > 10 µM
SW-620 colon
  TGI: > 10 µM
T-47D breast
  TGI: > 10 µM
TK-10 renal
  TGI: > 10 µM
U251 CNS
  TGI: > 10 µM
UACC-257 melanoma
  TGI: > 10 µM
UACC-62 melanoma
  TGI: > 10 µM
UO-31 renal
  TGI: > 10 µM

## CN(CCCN(C)Cc1ccc(Cl)c(Cl)c1)CCN1CCCC1
786-0 renal
  TGI: 31.6 µM
A498 renal
  TGI: 28.2 µM
A549 NSCLC
  TGI: > 80.9 µM
ACHN renal
  TGI: > 100 µM
BT-549 breast
  TGI: > 100 µM
CAKI-1 renal
  TGI: > 93.5 µM
CCRF-CEM leukemia
  TGI: 24.6 µM
COLO 205 colon
  TGI: 33 µM
DU-145 prostate
  TGI: > 100 µM
EKVX NSCLC
  TGI: > 100 µM
HCC-2998 colon
  TGI: 11.8 µM
HCT-116 colon
  TGI: > 54.2 µM
HCT-15 colon
  TGI: > 88.4 µM
HL-60(TB) leukemia
  TGI: > 100 µM
HOP-62 NSCLC
  TGI: 98.2 µM
HOP-92 NSCLC
  TGI: > 28.3 µM
HS 578T breast
  TGI: > 53.6 µM
HT29 colon
  TGI: 32.2 µM
IGROV1 ovarian
  TGI: > 62.8 µM
K-562 leukemia
  TGI: 15 µM
KM12 colon
  TGI: > 100 µM
LOX IMVI melanoma
  TGI: 41.2 µM
M14 melanoma
  TGI: 15.7 µM
MALME-3M melanoma
  TGI: 30.9 µM
MCF7 breast
  TGI: 43.6 µM
MDA-MB-231 breast
  TGI: 37.3 µM
MDA-MB-435
  TGI: 11.7 µM
MDA-N
  TGI: 15.8 µM
MOLT-4 leukemia
  TGI: 37.1 µM
NCI-H226 lung
  TGI: 55.6 µM
NCI-H23 lung
  TGI: > 100 µM
NCI-H460 lung
  TGI: 70.5 µM
NCI-H522 lung
  TGI: 37.1 µM
NCI/ADR-RES ovarian
  TGI: > 100 µM
OVCAR-3 ovarian
  TGI: > 100 µM
OVCAR-4 ovarian
  TGI: > 100 µM
OVCAR-5 ovarian
  TGI: > 86.3 µM
OVCAR-8 ovarian
  TGI: > 100 µM
PC-3 prostate
  TGI: > 100 µM
RPMI-8226 leukemia
  TGI: 17.5 µM
RXF 393 renal
  TGI: 67.9 µM
SF-268 CNS
  TGI: > 93.5 µM
SF-295 CNS
  TGI: 53.9 µM
SF-539 CNS
  TGI: 45.1 µM
SK-MEL-2 melanoma
  TGI: 26.4 µM
SK-MEL-28 melanoma
  TGI: 4.6 µM
SK-MEL-5 melanoma
  TGI: 19.5 µM
SK-OV-3 ovarian
  TGI: > 100 µM
SN12C renal
  TGI: > 100 µM
SNB-19 CNS
  TGI: > 100 µM
SNB-75 CNS
  TGI: 81.7 µM
SR leukemia
  TGI: 31.9 µM
SW-620 colon
  TGI: > 100 µM
T-47D breast
  TGI: > 80.6 µM
TK-10 renal
  TGI: > 82.7 µM
U251 CNS
  TGI: 47 µM
UACC-257 melanoma
  TGI: 7.18 µM
UACC-62 melanoma
  TGI: 3.67 µM
UO-31 renal
  TGI: 10 µM
